In the supplement of paper PMC11003180:

How the values were obtained:
Experiment in all cases: drug sensitivity score (DSS) from 5-dose viability curve (DSS (area-based score, 0 = no response)); higher = more sensitive (stronger viability inhibition); extreme values may be limits of the assay
[1] = system: MDCK wild-type - doxycycline; conditions: doxycycline: none; 72 h
Summary of the method: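 Parental MDCK cells, grown without doxycycline, were seeded at 2000 cells/well into 384-well plates pre-spotted with an oncology library of 528 drugs at five doses (1-10,000 nM). After 72 h at 37 °C, CellTiter-Glo luminescence was read. Viability was scaled per plate between vehicle and positive controls, and drug sensitivity scores were derived from dose-response curve fits in the Breeze pipeline.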

[2] = system: MDCK wild-type + doxycycline; conditions: doxycycline: 10 ng/mL; 72 h
Summary of the method: (§1)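 Pre-spotted 384-well plates held 528 oncology drugs, each at five doses from 1 to 10,000 nM. Parental and doxycycline-inducible MDCK cells, exposed beforehand to 10 ng/mL doxycycline in the medium, were added at 2000 cells/well and incubated 72 h at 37 °C. Viability came from CellTiter-Glo luminescence normalized per plate to vehicle and positive controls, and the Breeze pipeline fitted dose-response curves to give drug sensitivity scores.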

[3] = system: MDCK p60AmotL2-inducible + doxycycline (p60AmotL2 expressing); conditions: doxycycline: 10 ng/mL; 72 h
Summary of the method: as §1

SMILES	drug sensitivity score [1]	drug sensitivity score [2]	drug sensitivity score [3]
CCc1cnn2c(NCc3ccc[n+]([O-])c3)cc(N3CCCC[C@H]3CCO)nc12 [Dinaciclib]	18.3	17	16.3
Nc1ccccc1NC(=O)c1ccc(CNc2nccc(-c3cccnc3)n2)cc1 [Mocetinostat]	8.1	8.4	6.2
N#Cc1ccnc(N2C(=O)CC[C@H]2C(=O)N(c2cncc(F)c2)[C@H](C(=O)NC2CC(F)(F)C2)c2ccccc2Cl)c1 [Ivosidenib]	0	0	0
CNC(=O)c1ccc2cc([C@@]3(O)CCn4cncc43)ccc2c1 [Orteronel]	0	0	0
COc1cc(OC2CCN(C)CC2)ccc1Nc1ncc2c(n1)n(C1CCCC1)c(=O)n2C [AZ 3146]	5.1	5.1	6.3
c1cn2cc(-c3ccc4cn[nH]c4c3)nc(Nc3ccc(N4CCOCC4)cc3)c2n1 [Entospletinib]	0	0	0
Cn1c(=O)n(-c2ccc(C(C)(C)C#N)cc2)c2c3cc(-c4cnc5ccccc5c4)ccc3ncc21 [Dactolisib]	9.2	10.9	17.7
CCS(=O)(=O)N1CC(CC#N)(n2cc(-c3ncnc4[nH]ccc34)cn2)C1 [Baricitinib]	0	0	0
Cc1cnc(NC(=O)Nc2cc(Br)c(C)cc2OC[C@@H]2CNCCO2)cn1 [Rabusertib]	0	0	0
NC(=O)Nc1cc(-c2cccc(F)c2)sc1C(=O)N[C@H]1CCCNC1 [AZD7762]	0	0.2	0.3
C[C@H]1CNCCCN1S(=O)(=O)c1cccc2cncc(F)c12 [Ripasudil]	0	0	0
Cc1cc2c(F)c(Oc3ncnn4cc(OC[C@@H](C)O)c(C)c34)ccc2[nH]1 [Brivanib]	0	0	0
Cc1cc(Nc2cc(CN3CCOCC3)c3nc(C)c(Cc4ccc(Cl)cc4F)n3n2)n[nH]1 [Gandotinib]	6.3	5.5	8.2
O=C(O)CC1CC(c2ccccc2)=NO1 (stereo not given) [VGX-1027]	0	0	0
CC1(C)CC[C@]2(NC(=O)C(C)(F)F)CC[C@]3(C)[C@H](C(=O)C=C4[C@@]5(C)C=C(C#N)C(=O)C(C)(C)[C@@H]5CC[C@]43C)[C@@H]2C1 [Omaveloxolone]	17	16.3	16.7
CCc1c2c(nc3ccc(O)cc13)-c1cc3c(c(=O)n1C2)COC(=O)[C@]3(O)CC [SN-38]	21.1	23.3	24.8
C=CCc1cccc(/C=N/NC(=O)CN2CCN(Cc3ccccc3)CC2)c1O [PAC-1]	2.6	4.2	4
CC[C@H](CC#N)OC(=O)N[C@@H](C)c1cccc(NC(=O)Nc2ccc(-c3cnco3)c(OC)c2)c1 [AVN944]	11.1	12.6	18.5
CNc1nc(-c2ccc3c(N)n[nH]c3c2)cc(N2C[C@@H](C(=O)NC3CCCCC3)CC[C@H]2C)n1	0	0	0
CN1CC[C@@H](NC(=O)Nc2ccc(C#N)cc2)C[C@@H]1c1nc2ccccc2[nH]1 [Glasdegib]	0	0	0
CC1(C)NC(=O)N(c2ccc([N+](=O)[O-])c(C(F)(F)F)c2)C1=O [Nilutamide]	0	0	0
O=C(CCCCCCC(=O)Nc1ccccc1)NO [Vorinostat]	7.5	9.8	11.8
CON(C)C(=O)N1N=C(c2cc(F)ccc2F)S[C@@]1(CCCN)c1ccccc1 [Filanesib]	29.1	28.7	27.5
Cc1sc2c(c1C)C(c1ccc(Cl)cc1)=N[C@@H](CC(=O)Nc1ccc(OCCOCCOCCOCCNc3cccc4c3C(=O)N(C3CCC(=O)NC3=O)C4=O)cc1)c1nnc(C)n1-2 (stereo not given in full) [ARV-825]	5.5	7.3	11.2
Cc1ccc(C(=O)Nc2cccc(C(F)(F)F)c2)cc1Nc1nc(-c2cccnc2)nc2c1cnn2C [NVP-BHG712]	4.8	0	0
